Source: US20220362353A1, “DRUG COMBINATION FOR PREVENTING OR TREATING IRRITABLE BOWEL SYNDROME” (GUANGZHOU CENTURY CLINICAL RESEARCH CO., LTD, priority 2019, published 2022)

Experiments:
[1] = tested on: irritable bowel syndrome model animals; experiment: Abdominal withdrawal reflex (AWR) test after colorectal distension; assay type: in vivo, SD rats (Sprague-Dawley rats); conditions: for Abdominal withdrawal reflex scores of colorectal distension at different pressures (mean ± SD): 3 months old, after 1-month daily gavage, score 0-4
Protocol: In this example, the irritable bowel syndrome model was induced by daily applying colorectal distension as a stimulating factor to neonatal SD rats (Sprague-Dawley rats) from 8 days old to 21 days old. This model animal had visceral hypersensitivity of irritable bowel syndrome and without colonitis and mucosal injury. Colorectal distension stimulation was not given any more from 21 days old to 8 weeks old. A test drug or placebo was administered daily by gavage from 8 weeks old to 3 months old. On the 8 weeks old (before the beginning of the 1-month drug administration period) and about 3 months old (after the end of the 1-month drug administration period), behavioral and neural responses of rats to colorectal distention stimulation were tested by an abdominal wall withdrawal reflex test and an electromyography test. 8-day-old neonatal male SD rats with normal body weight were exposed to a 12:12 hr light-dark cycle. Every 12 neonatal rats and 1 adult female rat were co-bred with rat milk until 25 days old. Then every 4 neonatal rats were fed in the same cage, and they were allowed to eat and drink freely. The SD rats were randomly divided into a normal control group, a model group, a dosmalfate group, a lysozyme group, a first combination group (a dosage ratio of dosmalfate to lysozyme was 0.05:1), a second combination group (a dosage ratio of dosmalfate to lysozyme was 0.1:1), a third combination group (a dosage ratio of dosmalfate to lysozyme was 10:1), and a fourth combination group (a dosage ratio of dosmalfate to lysozyme was 20:1), and 12 animals were assigned to each group. Except for normal control group, colorectal distension (CRD) stimulation was applied to the rats in other groups every day from 8 days old to 21 days old to induce irritable bowel syndrome. The concrete operation method was as follows: a flexible balloon (with a polytetrafluoroethylene catheter; the balloon should be inflated overnight before the experiment so that it has better compliance) made of the fingers of surgical gloves, was smeared with vaseline, inserted from the anus of the rat to the colon and then fixed at the tail distanced away from the anus by 2 cm. The balloon was connected with a valve via the catheter, and the valve was additionally connected with a sphygmomanometer. Rats were placed in small plastic cages to restrict their turning and acclimatized for 30 minutes. The balloon was slowly inflated to 60 mm Hg with the sphygmomanometer, and deflated after stimulation for 20 seconds; the stimulation was repeated twice within 1 hour (with an interval of 30 minutes each time). Except for normal control group and model group, test drugs (wetted in 0.5% sodium carboxymethyl cellulose solution) were administrated to the rats in the other groups by gavage daily from 8 weeks old to 3 months old, and the dosage was 8 ml. The abdominal wall withdrawal reflex test was used to detect behavioral responses of rats to colorectal distension stimulation. This test was performed when rats in respective groups were 8 weeks old (before the start of the 1-month drug administration period) and 3 months old (after the end of the 1-month drug administration period). The rats were fasted overnight before undergoing the abdominal wall withdrawal reflex test, so as to reduce gastrointestinal contents. During the test, a flexible balloon (with a thin-walled polytetrafluoroethylene catheter; the balloon should be inflated overnight before the experiment so that it has better compliance) made of the fingers of surgical gloves, was smeared with vaseline and inserted from the anus of the rat by 7 cm to the colon and fixed at the caudal point by 2 cm distanced away from the anus. The balloon was connected with the valve via the catheter, and the valve was additionally connected with a sphygmomanometer. Rats were placed in small plastic cages to restrict their turning and acclimatized for 30 minutes. […]

[2] = tested on: irritable bowel syndrome model animals; experiment: Electromyography (EMG) test of external oblique abdominal muscles after colorectal distension; assay type: in vivo, SD rats (Sprague-Dawley rats); conditions: for AUC (%) of EMG of colorectal distension at different pressures (mean ± SD): 3 months old, after 1-month daily gavage, normalized to average baseline amplitude (100%)
Protocol: In this example, the irritable bowel syndrome model was induced by daily applying colorectal distension as a stimulating factor to neonatal SD rats (Sprague-Dawley rats) from 8 days old to 21 days old. This model animal had visceral hypersensitivity of irritable bowel syndrome and without colonitis and mucosal injury. Colorectal distension stimulation was not given any more from 21 days old to 8 weeks old. A test drug or placebo was administered daily by gavage from 8 weeks old to 3 months old. On the 8 weeks old (before the beginning of the 1-month drug administration period) and about 3 months old (after the end of the 1-month drug administration period), behavioral and neural responses of rats to colorectal distention stimulation were tested by an abdominal wall withdrawal reflex test and an electromyography test. 8-day-old neonatal male SD rats with normal body weight were exposed to a 12:12 hr light-dark cycle. Every 12 neonatal rats and 1 adult female rat were co-bred with rat milk until 25 days old. Then every 4 neonatal rats were fed in the same cage, and they were allowed to eat and drink freely. The SD rats were randomly divided into a normal control group, a model group, a dosmalfate group, a lysozyme group, a first combination group (a dosage ratio of dosmalfate to lysozyme was 0.05:1), a second combination group (a dosage ratio of dosmalfate to lysozyme was 0.1:1), a third combination group (a dosage ratio of dosmalfate to lysozyme was 10:1), and a fourth combination group (a dosage ratio of dosmalfate to lysozyme was 20:1), and 12 animals were assigned to each group. Except for normal control group, colorectal distension (CRD) stimulation was applied to the rats in other groups every day from 8 days old to 21 days old to induce irritable bowel syndrome. The concrete operation method was as follows: a flexible balloon (with a polytetrafluoroethylene catheter; the balloon should be inflated overnight before the experiment so that it has better compliance) made of the fingers of surgical gloves, was smeared with vaseline, inserted from the anus of the rat to the colon and then fixed at the tail distanced away from the anus by 2 cm. The balloon was connected with a valve via the catheter, and the valve was additionally connected with a sphygmomanometer. Rats were placed in small plastic cages to restrict their turning and acclimatized for 30 minutes. The balloon was slowly inflated to 60 mm Hg with the sphygmomanometer, and deflated after stimulation for 20 seconds; the stimulation was repeated twice within 1 hour (with an interval of 30 minutes each time). Except for normal control group and model group, test drugs (wetted in 0.5% sodium carboxymethyl cellulose solution) were administrated to the rats in the other groups by gavage daily from 8 weeks old to 3 months old, and the dosage was 8 ml. The visceral hypersensitivity (neural response) of rats to colorectal distension was quantified by measuring the electromyographic activity of external oblique abdominal muscles. When the rats in each group were 3 months old (after the end of the 1-month drug administration period), they were subjected to abdominal wall withdrawal reflex test followed by EMG test after abdominal wall withdrawal reflex test. On the second day when 3-month-old rats in each group were subjected to abdominal wall withdrawal reflex test, an appropriate amount of pentobarbital solution (50 mg/ml) was injected into the abdominal cavities of the rats, and the rats were fully anesthetized. The hairs on the lower abdomen and the back of the neck were cut, a needle electrode (tungsten microelectrode) was implanted into the left side of the abdomen of the rat, fixed in the muscle layer of the external oblique abdominal muscle, and the electrode wire was crossed through the subcutaneous of the left side of the rat to a small incision at the rear neck and out of the small incision. […]

Substance	Abdominal withdrawal reflex scores of colorectal distension at different pressures (mean ± SD) ([1]; 20 mm Hg)	Abdominal withdrawal reflex scores of colorectal distension at different pressures (mean ± SD) ([1]; 40 mm Hg)	Abdominal withdrawal reflex scores of colorectal distension at different pressures (mean ± SD) ([1]; 60 mm Hg)	abdominal wall withdrawal reflex values compared with model group, in words ([1]; after administration)	AUC (%) of EMG of colorectal distension at different pressures (mean ± SD) ([2]; 20 mm Hg) [%]	AUC (%) of EMG of colorectal distension at different pressures (mean ± SD) ([2]; 40 mm Hg) [%]	AUC (%) of EMG of colorectal distension at different pressures (mean ± SD) ([2]; 60 mm Hg)	EMG test result compared with model group, in words ([2]; after administration)
Lysozyme	2.11 ± 0.33	2.69 ± 0.41	3.56 ± 0.36	no significant difference	303 ± 36	394 ± 60	601 ± 60 ^ %	no significant difference
diosmin heptadiene (bisulfate) aluminum complex [Dosmalfate, reference compound]	2.25 ± 0.45	2.56 ± 0.30	3.64 ± 0.30		332 ± 39	445 ± 99	644 ± 117 ^ %	
